Measured values from publication PMC12775434, “Ultra-large virtual screening unveils potent agonists of the neuromodulatory orphan receptor GPR139” (Nature Communications, 2025).
Where “and” joins values, the source holds several entries; their conditions need not be identical. Equal entries are not always repeated.

Legend:
Assay type in all cases: cell-based
GPR139 [1] = target: T1, GPR139 (Homo sapiens, UniProt Q6DWJ6); test: Ca2+ mobilization assay, antagonist mode (EC80 800 nM Lundbeck Cmp 1a after 20 min preincubation), GPR139-CHOk1; details: individual replicates (Supplementary Figure 1)
T1 sequence (Q6DWJ6 1-353): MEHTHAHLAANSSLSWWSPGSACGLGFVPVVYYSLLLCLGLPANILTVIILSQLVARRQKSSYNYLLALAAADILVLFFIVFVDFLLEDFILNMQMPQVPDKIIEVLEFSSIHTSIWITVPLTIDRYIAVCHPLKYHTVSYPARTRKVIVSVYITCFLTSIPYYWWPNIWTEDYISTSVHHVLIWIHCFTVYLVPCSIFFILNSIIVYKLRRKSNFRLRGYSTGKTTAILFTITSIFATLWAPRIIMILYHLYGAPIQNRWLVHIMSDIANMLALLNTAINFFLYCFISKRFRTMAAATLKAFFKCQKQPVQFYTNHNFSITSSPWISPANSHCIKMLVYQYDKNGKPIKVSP
Outline: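 Antagonist mode: 800 nM (EC80) reference agonist Lundbeck Cmp 1a added following 20 min pre-incubation with 10 µM compound. GPR139-CHOk1 cells, Fluo-4 dye, probenecid-containing HEPES buffer pH 7.4; intracellular Ca2+ measured at 37 °C (ex 485, em 525 nm).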

GPR139 [2] = target: T1, GPR139; test: Ca2+ mobilization assay, agonist mode, stable GPR139-CHOk1 cell line
Outline: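 Agonist activity of compounds is assessed in stably transfected CHO-K1 cells using the calcium dye Fluo-4 at 37 °C in HEPES-buffered HBSS (pH 7.4). Efficacy is expressed relative to the reference agonist Lundbeck Cmp 1a, set as 100%.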

[3] = target: T2, human muscarinic acetylcholine M1 receptor (M1R) (Homo sapiens, UniProt P11229); test: Ca2+ mobilization counter-screen in M1R-CHOk1 cells; details: individual replicates (Supplementary Figure 2);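 note: 10 µM test compound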
T2 sequence (P11229 1-460): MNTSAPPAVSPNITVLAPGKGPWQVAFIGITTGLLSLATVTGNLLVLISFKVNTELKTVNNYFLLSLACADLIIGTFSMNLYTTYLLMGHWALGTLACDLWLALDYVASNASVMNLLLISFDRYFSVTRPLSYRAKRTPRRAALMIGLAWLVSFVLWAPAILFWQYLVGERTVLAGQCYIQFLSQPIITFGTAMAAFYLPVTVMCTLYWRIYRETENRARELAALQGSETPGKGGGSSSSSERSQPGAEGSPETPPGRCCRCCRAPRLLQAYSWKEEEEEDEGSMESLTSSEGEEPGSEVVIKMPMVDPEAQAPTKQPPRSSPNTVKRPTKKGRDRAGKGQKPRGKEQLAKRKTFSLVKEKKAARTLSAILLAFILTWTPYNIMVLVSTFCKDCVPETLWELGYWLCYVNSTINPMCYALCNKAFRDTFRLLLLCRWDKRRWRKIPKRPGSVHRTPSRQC
Outline: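 Counter-screen used CHO-K1 cells stably carrying human M1R, Fluo-4 AM-loaded (2 µM, 1 h, 37 °C). Calcium signal measured at 485/525 nm after compound addition.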

[4] = 0.1 µM, individual replicates (Supplementary Figure 3)
[5] = 1 µM, individual replicates (Supplementary Figure 3)
[6] = 10 µM, individual replicates (Supplementary Figure 3)
[7] = Agonist mode, individual replicates (Supplementary Figure 1)
[8] = primary screen, 10 µM compound, agonist mode, three columns = independent experiments

Row | SMILES | Ca2+ signal (% of Cmp 1a) (GPR139 [2]; [4]) | Ca2+ signal (% of Cmp 1a) (GPR139 [2]; [5]) | Ca2+ signal (% of Cmp 1a) (GPR139 [2]; [6]) | Ca2+ signal (% of Cmp 1a) (GPR139 [1]) | Ca2+ signal (% of Cmp 1a) (GPR139 [2]; [7]) | Ca2+ signal (% of Carbachol) [3] | activation of GPR139 at three concentrations (GPR139 [2]; 0.1, 1 and 10 µM, activity too low to reliably determine EC50) | Ca2+ signal (% of Cmp 1a) (GPR139 [2]; [8])
1 | CN(Cc1cc(Cl)cn1C)C(=O)CCC(=O)c1cccs1 [Compound 11, CN(CC1=CC(Cl)=CN1C)C(=O)CCC(=O)C2=CC=CS2] | 1.5 % of Cmp 1a and 12.7 % of Cmp 1a | -6.5 % of Cmp 1a and 1.1 % of Cmp 1a | 13.9 % of Cmp 1a and 12.8 % of Cmp 1a | 63.3528 % of Cmp 1a and 60.457 % of Cmp 1a and 64.2066 % of Cmp 1a | 40 % of Cmp 1a and 30 % of Cmp 1a and 33 % of Cmp 1a | -4 % of Carbachol and 17 % of Carbachol | – | 40 % of Cmp 1a and 30 % of Cmp 1a and 33 % of Cmp 1a
2 | CCOc1ccc(C(=O)OCC(=O)N[C@H](C)c2ccccc2)cc1 [Compound 14, CCOC=1C=CC(=CC1)C(=O)OCC(=O)N[C@H](C)C=2C=CC=CC2] | 1.0 % of Cmp 1a and -0.9 % of Cmp 1a | -7.4 % of Cmp 1a and 2.7 % of Cmp 1a | 15.1 % of Cmp 1a and 12.7 % of Cmp 1a | 75.8591 % of Cmp 1a and 82.1128 % of Cmp 1a and 79.0278 % of Cmp 1a | 37 % of Cmp 1a and 14 % of Cmp 1a and 31 % of Cmp 1a | -14 % of Carbachol and 13 % of Carbachol | – | –

More lines, main results first:

Row | Ca2+ signal (% of Cmp 1a) (GPR139 [2]; [4]) | Ca2+ signal (% of Cmp 1a) (GPR139 [2]; [5]) | Ca2+ signal (% of Cmp 1a) (GPR139 [2]; [6]) | SMILES | Ca2+ signal (% of Cmp 1a) (GPR139 [1]) | Ca2+ signal (% of Cmp 1a) (GPR139 [2]; [7]) | Ca2+ signal (% of Carbachol) [3] | activation of GPR139 at three concentrations (GPR139 [2]; 0.1, 1 and 10 µM, activity too low to reliably determine EC50) | Ca2+ signal (% of Cmp 1a) (GPR139 [2]; [8])
3 | -6.9 % of Cmp 1a and -8.5 % of Cmp 1a | -0.2 % of Cmp 1a and -5.2 % of Cmp 1a | 18.7 % of Cmp 1a and 14.1 % of Cmp 1a | CN1CC(=O)N(c2cccc(NC(=O)C3Cc4ccccc43)c2)C1=O (stereo not shown) [Compound 9, CN1CC(=O)N(C1=O)C=2C=CC=C(NC(=O)C3CC=4C=CC=CC34)C2] | 73.6349 % of Cmp 1a and 73.421 % of Cmp 1a and 97.2374 % of Cmp 1a | 25 % of Cmp 1a and 10 % of Cmp 1a and 48 % of Cmp 1a | -9 % of Carbachol and -19 % of Carbachol | – | –
4 | -1.5 % of Cmp 1a and 11.5 % of Cmp 1a | 2.4 % of Cmp 1a and 6.6 % of Cmp 1a | 39.5 % of Cmp 1a and 47.6 % of Cmp 1a | C[C@H](NC(=O)CN(CC1CC1)C(=O)OC(C)(C)C)c1ccccc1 [Compound 10, C[C@H](NC(=O)CN(CC1CC1)C(=O)OC(C)(C)C)C=2C=CC=CC2] | 34.852 % of Cmp 1a and 42.0733 % of Cmp 1a and 46.5676 % of Cmp 1a | 58 % of Cmp 1a and 64 % of Cmp 1a and 72 % of Cmp 1a | 3.79 % of Carbachol and -10 % of Carbachol | concentration-dependent activation of GPR139 | 58 % of Cmp 1a and 64 % of Cmp 1a and 72 % of Cmp 1a
5 | -2.8 % of Cmp 1a and 0.3 % of Cmp 1a | -0.458 % of Cmp 1a and 0.235 % of Cmp 1a | 12.7 % of Cmp 1a and 12.3 % of Cmp 1a | CC(NC(=O)C1CCN(c2cccc(Cl)c2)C1=O)c1ccsc1 (stereo not shown) [Compound 12, CC(NC(=O)C1CCN(C1=O)C=2C=CC=C(Cl)C2)C=3C=CSC3] | 56.3731 % of Cmp 1a and 71.421 % of Cmp 1a and 56.1991 % of Cmp 1a | 45 % of Cmp 1a and 20 % of Cmp 1a and 39 % of Cmp 1a | -6.54 % of Carbachol and -0.0404 % of Carbachol | – | –
6 | -0.35 % of Cmp 1a and -3.4 % of Cmp 1a | 5.0 % of Cmp 1a and -6.6 % of Cmp 1a | 18.4 % of Cmp 1a and -6.0 % of Cmp 1a | O=C(NC1CC12CCCC2)C1CCCN(c2ccccc2)C1=O (stereo not shown) [Compound 13, O=C(NC1CC21CCCC2)C3CCCN(C3=O)C=4C=CC=CC4] | 67.15 % of Cmp 1a and 66.5231 % of Cmp 1a and 65.9874 % of Cmp 1a | 47 % of Cmp 1a and 33 % of Cmp 1a and 40 % of Cmp 1a | -12 % of Carbachol and -1.24 % of Carbachol | – | 47 % of Cmp 1a and 33 % of Cmp 1a and 40 % of Cmp 1a
